Test results published in PubChem BioAssay (NCI).
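Cultured in 96-well plates, cells were exposed to test compound for 48 hours across five concentrations. TGI marks complete inhibition of growth.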 Where a SMILES comes first, the peptide text is derived from it. The star is where a group is joined. Cbz = O=C(OCc1ccccc1)*; NHNH2 = NN*

Key:
Test in all cases: growth of human tumour cells (NCI), 48 h
SR leukemia = system: SR leukemia
RPMI-8226 leukemia = system: RPMI-8226 leukemia
HT29 colon = system: HT29 colon
MCF7 breast = system: MCF7 breast
HCT-116 colon = system: HCT-116 colon
SN12C renal = system: SN12C renal
HL-60(TB) leukemia = system: HL-60(TB) leukemia
SK-MEL-2 melanoma = system: SK-MEL-2 melanoma
M14 melanoma = system: M14 melanoma
IGROV1 ovarian = system: IGROV1 ovarian
SNB-75 CNS = system: SNB-75 CNS
HCT-15 colon = system: HCT-15 colon
K-562 leukemia = system: K-562 leukemia
SF-539 CNS = system: SF-539 CNS
OVCAR-5 ovarian = system: OVCAR-5 ovarian
UACC-62 melanoma = system: UACC-62 melanoma

| SMILES | TGI (SR leukemia) [µM] | TGI (RPMI-8226 leukemia) [µM] | TGI (HT29 colon) [µM] | TGI (MCF7 breast) [µM] | TGI (HCT-116 colon) [µM] | TGI (SN12C renal) [µM] | TGI (HL-60(TB) leukemia) [µM] | TGI (SK-MEL-2 melanoma) [µM] | TGI (M14 melanoma) [µM] | TGI (IGROV1 ovarian) [µM] | TGI (SNB-75 CNS) [µM] | TGI (HCT-15 colon) [µM] | TGI (K-562 leukemia) [µM] | TGI (SF-539 CNS) [µM] | TGI (OVCAR-5 ovarian) [µM] | TGI (UACC-62 melanoma) [µM] |
| --- | --- | --- | --- | --- | --- | --- | --- | --- | --- | --- | --- | --- | --- | --- | --- | --- |
| CC(=O)C(=[N+]=[N-])C(=O)N(C)CCC#N | > 10 | > 10 | > 10 | > 10 | > 10 | > 10 | > 10 | > 10 | > 10 | > 10 | 3.39 | > 10 | > 10 | > 10 | > 10 | > 10 |
| CN(C(=O)Cc1cc(Cl)c(Cl)cc1NC(=O)CN)[C@H]1CCCC[C@@H]1N1CCCC1 | 77.8 | 94 | 58.7 | > 100 | > 100 | > 100 | 52.7 | 35.7 | 33.5 | > 100 | 55.9 | > 100 | 57.5 | – | > 100 | 30.2 |
| CCC(O)c1ccc(N=Cc2ccccc2O)cc1 (stereo not given) | > 100 | > 100 | > 100 | > 100 | > 100 | – | > 100 | > 100 | > 100 | > 100 | > 100 | > 100 | > 100 | > 100 | > 100 | > 100 |
| CC/C=C/C[C@H](O)[C@H]1C[C@H]2O[C@H](CC(=O)OC)C[C@H]2O1 | > 100 | > 100 | > 100 | > 100 | > 100 | > 100 | > 100 | > 100 | > 100 | > 100 | > 100 | > 100 | > 100 | – | > 100 | > 100 |
| CCOC(=O)CCC(NC(=O)OCc1ccccc1)C(=O)NC(CCC(=O)OCC)C(=O)NN (stereo not given) (Cbz-Glu(OEt)-Glu(OEt)-NHNH2; configuration not given here) | > 100 | > 100 | > 100 | > 100 | > 100 | > 100 | > 100 | > 100 | > 100 | > 100 | > 100 | > 100 | > 100 | – | > 100 | > 100 |
| C(=Nc1ccc(-c2nc3ccccc3[nH]2)cc1)c1ccco1 | > 100 | > 100 | > 100 | > 100 | > 100 | > 100 | > 100 | > 100 | > 100 | > 100 | > 100 | > 100 | > 100 | > 100 | > 100 | > 100 |
| COc1c2c(cc3c1C1(O)Cc4ccc5c(c4C[N+]1(C)CC3)OCO5)OCO2 (stereo not given) | > 100 | > 100 | > 100 | > 100 | > 100 | > 100 | > 100 | > 100 | > 100 | > 100 | > 100 | > 100 | > 100 | > 100 | > 100 | > 100 |
| O=C(Nc1nnc(-c2c(Cl)c(Cl)c(Cl)c(Cl)c2-c2nc3cc(C(=O)c4ccccc4)ccc3[nH]2)o1)c1ccc(Cl)cc1 | > 100 | > 100 | > 100 | > 100 | > 100 | 53 | > 100 | > 100 | > 100 | > 100 | > 100 | > 100 | > 100 | > 100 | > 100 | – |
| CSCCCNC(=O)c1csc(-c2csc(CCNC(=O)CNC(=O)CNC(=O)OC(C)(C)C)n2)n1 | > 100 | – | > 100 | > 100 | > 100 | > 100 | > 100 | > 100 | > 100 | > 100 | > 100 | > 100 | > 100 | > 100 | > 100 | > 100 |
| CN(C)c1cccc2c1C(=O)C=CC21CCc2ccc(N(C)C)c3c(N(C)C)ccc1c23 (stereo not given) | 56.5 | 58.6 | 27 | 27.3 | 22.9 | 26.5 | 27.3 | – | 29.1 | 31.2 | 19.2 | – | 24.2 | 35.4 | 49.6 | 26.9 |
| COC(=O)/C=C\C(C#N)(C#N)N=Cc1sccc1C | > 100 | > 24.6 | 3.31 | 3.13 | 6.69 | 22.3 | 4.45 | 30.2 | 5.48 | 29 | 28.4 | 4.57 | > 100 | – | 14.4 | 17 |
| CCN(CC)CCCNc1[nH]ncc2c(C)c3nc4ccc(OC)cc4c3cc12 | 1.76 | 2.69 | 6.04 | 1.28 | 1.41 | 1.77 | 2.9 | 3.01 | 3.26 | 2.91 | 2.1 | 36.3 | 1.64 | 1.16 | 6.66 | 2.74 |
| CC1C2=C(CCCC2=O)N(c2ccc(Cl)cc2)C2=C1C(=O)CCC2 | > 100 | > 100 | > 100 | > 100 | – | > 100 | > 100 | – | > 100 | > 100 | > 100 | > 100 | > 100 | > 100 | > 100 | > 100 |
| O=C(O)c1ccc(Nc2nc3cc(C(F)(F)F)ccc3n3cccc23)cc1 | 41.6 | 68.6 | 30.9 | > 100 | 68.2 | – | > 100 | > 100 | 80.5 | > 100 | 81 | > 100 | 67.7 | 74.6 | > 100 | 77.8 |
| CC1(C)OC[C@@H](O)[C@H](Br)CO1 | > 100 | > 100 | > 100 | > 100 | > 100 | > 100 | > 100 | > 100 | > 100 | – | > 100 | > 100 | > 100 | > 100 | > 100 | > 100 |
| COc1nc2c(c(=O)n1C)N=C(c1ccc(Cl)cc1)CC(c1ccccc1)N2 (stereo not given) | > 100 | 54 | 47.4 | 28.8 | 63.5 | 54.4 | – | 42.9 | > 100 | 51.5 | 46.7 | 30.4 | 54.2 | 31.5 | 78.7 | 37.6 |
| CCCN1C(=O)/C(=C\c2ccc(OC)c(OC)c2)SC1=Nc1ccccc1 | > 100 | > 100 | > 100 | > 100 | > 100 | > 100 | > 100 | > 100 | > 100 | > 100 | – | > 100 | > 100 | > 100 | > 100 | > 100 |
| CNC(=O)OC(COC)CN1CCN(c2ccccc2C)CC1 (stereo not given) | > 10 | > 10 | > 10 | > 10 | > 10 | > 10 | > 10 | > 10 | > 10 | > 10 | > 10 | > 10 | > 10 | > 10 | – | > 10 |
| COc1cc2ccc1OCc1cccc(n1)COc1ccc(cc1OC)C=NCCNCCNCCN=C2 | > 100 | – | > 100 | > 100 | > 100 | > 100 | > 100 | > 100 | > 100 | > 100 | > 100 | > 100 | > 100 | > 100 | > 100 | > 100 |
| CCN(CC)c1ccc2cc(C(=O)Nc3ccc(C)cc3)c(=N)oc2c1 | > 100 | > 100 | > 100 | > 100 | > 100 | > 100 | > 100 | > 100 | > 100 | > 100 | > 100 | > 100 | > 100 | – | > 100 | > 100 |
| CCn1c(=O)c2nc(SC)sc2n(-c2ccccc2)c1=O | > 100 | > 100 | > 100 | > 100 | > 100 | > 100 | > 100 | > 100 | > 100 | > 100 | > 100 | > 100 | > 100 | > 100 | > 100 | – |
| Nc1ccc(-c2nc3ccccc3s2)cc1C#Cc1ccccc1 | > 100 | 47.2 | 35.4 | 19.2 | 27.4 | 37.1 | 62.1 | – | 30.6 | 28.4 | 59.7 | 38.2 | 84.4 | 35.4 | 54.5 | 33.9 |
| CCCC1(CCC)c2cc(/C=N\O)ccc2-c2ccc(-c3ccc(C(C)(C)C)cc3)cc21 | 73.1 | > 100 | > 100 | > 100 | 54.8 | 53.5 | 51.7 | 99.3 | > 100 | > 100 | > 100 | > 100 | > 100 | > 100 | > 100 | – |
| Cc1c(N2C(=O)/C(=C/c3ccc(N(CCC#N)CCC#N)cc3)N=C2c2ccccc2)c(=O)n(-c2ccccc2)n1C | > 100 | > 100 | > 100 | > 100 | > 100 | > 100 | > 100 | > 100 | > 100 | > 100 | – | > 100 | – | > 100 | > 100 | > 100 |
| CC[C@H](C)C1=C(O)[N@+]2([O-])Oc3ccc(-c4c(O)c(O)c(-c5ccc(O)cc5)c(OC(C)=O)c4OC(C)=O)cc3O[C@]2([C@@H](C)CC)C(=O)N1O | > 50 | 29.9 | > 50 | > 50 | 20.2 | > 50 | > 50 | > 50 | > 50 | 28.2 | – | > 50 | > 50 | > 50 | > 50 | > 50 |
| CCOC(=O)c1cc(C2CCN(c3ccccc3)C2=O)c(C(=O)/C=C(/C)N)[nH]1 (stereo not given) | > 100 | > 100 | 25.6 | > 100 | 27.9 | 63.7 | > 100 | > 100 | > 100 | > 100 | 28.2 | > 100 | > 100 | – | > 100 | 40.1 |
| C=CCOc1ccccc1C1(O)c2ccccc2C2=NCCCN21 (stereo not given) | > 100 | > 100 | 36.2 | > 100 | > 100 | > 100 | 96.8 | – | 39.8 | 44.7 | > 100 | > 100 | > 100 | 39.5 | > 100 | > 100 |
| CCOC(=O)c1c(N2CCCC2)ncn(C)c1=S | > 100 | > 100 | > 100 | > 100 | > 100 | > 100 | > 100 | > 100 | > 100 | > 100 | – | > 100 | > 100 | > 100 | > 100 | > 100 |
| O=[N+]([O-])/C(C(Cl)=C(Cl)Cl)=C(\N1CCCCC1)n1nnc2ccccc21 | 58.4 | 38.6 | 39.3 | > 69.4 | 33.4 | 33.7 | – | 37.7 | 32.5 | 34.1 | > 65.5 | 39.1 | 22.5 | 33.6 | 36.9 | 36.7 |
| CCn1c2ccccc2c2ccc(C3C(C(=O)OC)=C(C)NC(C)=C3C(=O)OC)cc21 | > 100 | 80.8 | > 100 | > 100 | > 100 | > 100 | > 100 | – | – | > 100 | > 100 | > 100 | > 100 | > 100 | > 100 | > 100 |
